Common to all, as to type: functional, organism-based
The subject of one test is Plasmodium falciparum. Nature of the test: Antimicrobial activity against Plasmodium falciparum.
The next test concerns Entamoeba histolytica. In words: Antimicrobial activity against Entamoeba histolytica.
The next test concerns Leishmania infantum. In words: Antimicrobial activity against Leishmania infantum.

Molecules are shown by their SMILES.

Turning to `Cc1cccnc1NC(P(=O)(O)O)P(=O)(O)O`, the IC50 in the test on Plasmodium falciparum and with Entamoeba histolytica was 200 µM in each case.

Regarding `O=P(O)(O)C(N1CCCCC1)P(=O)(O)O`, the IC50 in the test on Plasmodium falciparum and in the test on Entamoeba histolytica was 200 µM throughout.

Take `O=P(O)(O)C(CNc1ccccn1)P(=O)(O)O`: in the test on Entamoeba histolytica, half-maximal inhibition (IC50) required 200 µM.

In the case of `O=P(O)(O)C(Nc1ccc(-c2ccccc2)cc1)P(=O)(O)O`, the half-maximal inhibitory concentration (IC50) (commonly the midpoint of a concentration-inhibition curve) with Entamoeba histolytica was 9 µM.

On to `O=P(O)(O)CC(c1cccnc1)P(=O)(O)O` (stereo unspecified), for which the IC50 with Plasmodium falciparum and with Entamoeba histolytica was 200 µM throughout.

For the compound `O=P(O)(O)CC(c1ccncc1)P(=O)(O)O` (stereo unspecified), the IC50 in the test with Plasmodium falciparum and with Entamoeba histolytica was 200 µM in each case.

`CCCCCCCCCCCCCCCCCC(O)(P(=O)(O)O)P(=O)(O)O`: the IC50 in the test on Plasmodium falciparum and in the test with Entamoeba histolytica was 200 µM each time.

With `O=P(O)(O)C(O)(CCCCNCCCCc1ccccc1)P(=O)(O)O`, the values for the IC50 in the test on Plasmodium falciparum and in the test with Entamoeba histolytica were 200 µM and 21 µM, respectively.

In the case of `O=P(O)(O)CC(c1ccccn1)P(=O)(O)O` (stereo unspecified), the IC50 in the test on Plasmodium falciparum and in the test with Entamoeba histolytica was 200 µM in each case.

Regarding `CCCN(CCC)C(P(=O)(O)O)P(=O)(O)O` [(DIPROPYLAMINO)METHYLENEDIPHOSPHONIC ACID], the IC50 in the test on Plasmodium falciparum and in the test on Entamoeba histolytica was 200 µM in each case.

Take `O=P(O)(O)C(O)(Cc1ccccn1)P(=O)(O)O`: 200 µM corresponded to half-maximal inhibition in the test on Entamoeba histolytica (IC50).

As to `CCCC(O)(P(=O)(O)O)P(=O)(O)O`, the IC50 in the test with Entamoeba histolytica amounted to 200 µM.

Compound `CCCCC(O)(P(=O)(O)O)P(=O)(O)O` yielded an IC50 in the test on Entamoeba histolytica of 200 µM.

Consider `O=P(O)(O)C(O)(CSc1ccncc1)P(=O)(O)O`, for which, in the test on Entamoeba histolytica, the IC50 was determined as 200 µM.

The compound `COc1ccc2nc3ccc(N(CCCCCN(c4ccc5nc6ccc(OC)cc6c(Cl)c5c4)c4ccc5nc6ccc(OC)cc6c(Cl)c5c4)c4ccc5nc6ccc(OC)cc6c(Cl)c5c4)cc3c(Cl)c2c1` had an IC50 in the test with Leishmania infantum of 2 µM.

`COc1ccc2nc3ccc(CO)cc3c(Cl)c2c1` had a concentration for half-maximal inhibition (IC50) in the test with Leishmania infantum of 183 µM.

The compound `CCCCCCNC(P(=O)(O)O)P(=O)(O)O` [(HEXYLAMINO)METHYLENEDIPHOSPHONIC ACID] had an IC50 with Entamoeba histolytica of 200 µM.

Regarding `CCCC(=O)OCc1ccc2nc3ccc(OC)cc3c(Cl)c2c1`, half-maximal inhibition in the test with Leishmania infantum (IC50) was put at 3 µM.

For the compound `O=P(O)(O)C(N1CCOCC1)P(=O)(O)O` [MORPHOLINOMETHYLENEDIPHOSPHONIC ACID], the midpoint of inhibition in the test with Entamoeba histolytica, the IC50, lay at 200 µM.

In the case of `COc1ccc2nc3ccc(COC(=O)c4ccc(Cl)cc4)cc3c(Cl)c2c1`, half-maximal inhibition in the test on Leishmania infantum (IC50) required 156 µM.

On to `COc1ccc2nc3ccc(N(CCCCCCN(c4ccc5nc6ccc(OC)cc6c(Cl)c5c4)c4ccc5nc6ccc(OC)cc6c(Cl)c5c4)c4ccc5nc6ccc(OC)cc6c(Cl)c5c4)cc3c(Cl)c2c1`, for which, in the test on Leishmania infantum, the IC50 was determined as 68 µM.

`COc1ccc2nc3ccc(COC(=O)c4ccc(Cl)cc4)cc3c(N)c2c1` showed an IC50 in the test on Leishmania infantum of 3 µM.

With `COc1ccc2nc3ccc(C)cc3c(N)c2c1`, in the test on Leishmania infantum, the IC50 was determined as 1 µM.

For `COc1ccc2nc3ccc(COC(=O)c4ccccc4)cc3c(Cl)c2c1`, the IC50 in the test with Leishmania infantum amounted to 137 µM.

Compound `COc1ccc2nc3ccc(CBr)cc3c(N)c2c1` registered an IC50 in the test on Leishmania infantum of 4 µM.

For the compound `COc1ccc2nc3ccc(NCCCCNc4ccc5nc6ccc(OC)cc6c(N)c5c4)cc3c(N)c2c1`, 5 µM corresponded to half-maximal inhibition in the test on Leishmania infantum (IC50).

The compound `COc1ccc2nc3cc(NCCCCCCCNc4ccc5nc6ccc(OC)cc6c(N)c5c4)ccc3c(N)c2c1` came in with an IC50 in the test with Leishmania infantum of 9 µM.

`O=P(O)(O)C(Nc1nccc2ccccc12)P(=O)(O)O` gave an IC50 with Entamoeba histolytica of 200 µM.

The compound `COc1ccc2nc3ccc(CBr)cc3c(Cl)c2c1` showed an IC50 with Leishmania infantum of 6 µM.

`COc1ccc(C(=O)OCc2ccc3nc4ccc(OC)cc4c(N)c3c2)cc1` had an IC50 in the test on Leishmania infantum of 2 µM.

Consider `CN(CCOc1ccccc1)CCC(O)(P(=O)(O)O)P(=O)(O)O`, for which, in the test with Entamoeba histolytica, inhibition was half-maximal at 6 µM (IC50).

Take `CCn1c2ccccc2c2ccc(NC(P(=O)(O)O)P(=O)(O)O)cc21`: the IC50 with Entamoeba histolytica was 200 µM.

`COc1ccc2nc3ccc(N(CCCCCN(c4ccc5nc6ccc(OC)cc6c(N)c5c4)c4ccc5nc6ccc(OC)cc6c(N)c5c4)c4ccc5nc6ccc(OC)cc6c(N)c5c4)cc3c(N)c2c1` returned a half-inhibitory concentration (IC50) in the test with Leishmania infantum of 2 µM.

The values above are taken from ChEMBL document CHEMBL1212812, “Multi-target spectral moment QSAR versus ANN for antiparasitic drugs against different parasite species” (Bioorg Med Chem, 2010).
